These results are taken from US8389764B2, “Urea and sulfamide derivatives as inhibitors of TAFIa” (Sanofi, priority 2006, dated 2013).

Numbered stars: 1 amine (or outer) side, 2 acyl side, 3 side chain; on linkers, the order of the positions; unused ones are H or OH. Square brackets hold non-standard residues; d marks the D form. Peptide text beside a SMILES is read from it. * marks the point of attachment. ξ: configuration not given here. dCha = N[C@H](CC1CCCCC1)C(=O)O; Phe(ol) = N[C@H](CO)Cc1ccccc1; Cbz = O=C(OCc1ccccc1)*; CO = O=C([*:1])[*:2]; ξV = CC(C)C(N)C(=O)O

The target in the assay is T1, TAFIa (Homo sapiens, UniProt Q96IY4).
T1 construct: purchased American Diagnostica 874TAFIA
T1 sequence (Q96IY4 115-423): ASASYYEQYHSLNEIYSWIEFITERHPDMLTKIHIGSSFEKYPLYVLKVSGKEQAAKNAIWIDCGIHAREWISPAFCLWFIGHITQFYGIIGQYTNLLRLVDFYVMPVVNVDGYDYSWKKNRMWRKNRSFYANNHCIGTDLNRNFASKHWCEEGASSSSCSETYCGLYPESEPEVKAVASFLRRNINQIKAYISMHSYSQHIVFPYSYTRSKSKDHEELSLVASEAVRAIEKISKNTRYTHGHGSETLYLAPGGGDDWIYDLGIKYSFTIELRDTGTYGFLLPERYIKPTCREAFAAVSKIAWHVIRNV
As to the kind of experiment: TAFIa inhibition, Actichrome plasma TAFI activity kit (American Diagnostica). It is filed as biochemical. Particulars: 15 min preincubation at room temperature, read at 420 nm, duplicate determination of serial dilutions. On the procedure:
The enzymic reaction was started by adding 10 μl of TAFIa developer (prediluted 1:2 with assay buffer).
The IC50 values were calculated from the averaged values (duplicate determination) of serial dilutions of the substance with the aid of the Softmax Pro software (version 4.8; Molecular Devices).

As a reminder, the IC50 is the concentration at which inhibition is half-maximal. A higher IC50 goes with weaker potency. `COC(=O)[C@H](Cc1c[nH]c2ccccc12)NC(=O)[C@@H](NC(=O)[C@@H](CCCCNC(=O)OCc1ccccc1)NC(=O)N[C@@H](CCCCN)C(=O)O)C(C)C` [Example 134] ({Lys-CO}-[dK](Cbz)-Val-Trp-OMe) gave an IC50 of 532 nM.
The value for `CC(C)(C)OC(=O)[C@H](CCCCN)NS(=O)(=O)N[C@@H](CC1CCCCC1)C(=O)N[C@@H]1C[C@H]2CC[C@]1(C)C2(C)C` [Example 186] was 22900 nM.
`CC1CCCCC1NC(=O)[C@@H](NC(=O)[C@@H](CCCCNC(=O)OCc1ccccc1)NC(=O)N[C@@H](CCCCN)C(=O)O)C(C)C` (some centres unmarked) [Example 128] gave an IC50 of 391 nM.
As for `COC(=O)[C@H](Cc1ccc(O)cc1)NC(=O)[C@@H](NC(=O)[C@@H](CC1CCCCC1)NC(=O)N[C@@H](CCCCN)C(=O)O)C(C)C` [Example 133] ({Lys-CO}-[dCha]-Val-Tyr-OMe), half-maximal inhibition (IC50) was put at 636 nM.
As for `CC1(C)[C@@H]2CC[C@@]1(C)C(NC(=O)[C@@H](Cc1ccccc1)NC(=O)N[C@@H](CCCCN)C(=O)O)C2` (some centres unmarked) [Example 96], the figure is 15 nM; as for `CC1(C)[C@@H]2CC[C@@]1(C)[C@@H](NC(=O)[C@@H](CC1CCC1)NC(=O)N[C@@H](CCCCN)C(=O)O)C2` [Example 109], 9 nM.
Regarding `CC1(C)C2CC[C@@]1(C)[C@@H](NC(=O)[C@@H](CC1CCCCC1)NC(=O)N[C@@H](CCONC(=N)N)C(=O)O)C2` [Example 107], the IC50 was determined as 1100 nM.
The molecule `C[C@H](NC(=O)[C@@H](CCCCNC(=O)OCc1ccccc1)NC(=O)N[C@@H](CCCCN)C(=O)O)c1ccc(Cl)cc1` [Example 44] displayed an IC50 of 144 nM.
Take `CC1CCCCC1NC(=O)[C@@H](CCCCNC(=O)OCc1ccccc1)NC(=O)N[C@@H](CCCCN)C(=O)O` (some centres unmarked) [Example 42]: the IC50 amounted to 839 nM.
In turn, `NCCCC[C@H](NC(=O)N[C@H](CC1CCCCC1)C(=O)NC1CCC2CCCCC2C1)C(=O)O` (some centres unmarked) [Example 92] gave an IC50 of 160 nM.
`CC1(C)[C@@H]2CC[C@@]1(C)[C@@H](NC(=O)[C@H](CC1CCC1)NS(=O)(=O)N[C@@H](CCCCN)C(=O)O)C2` [Example 150] had an IC50 of 357 nM.
In the case of `CCOC(=O)[C@@H](NC(=O)[C@@H](NC(=O)[C@@H](CCCCNC(=O)OCc1ccccc1)NC(=O)N[C@@H](CCCCN)C(=O)O)C(C)C)C(C)C` [Example 118] ({Lys-CO}-[dK](Cbz)-Val-Val-OEt), 267 nM corresponded to half-maximal inhibition (IC50).
In turn, `CC(C)C[C@@H](NC(=O)N[C@@H](CCCCN)C(=O)O)C(=O)NC1C[C@H]2CC[C@]1(C)C2(C)C` (some centres unmarked) [Example 99] had an IC50 of 57 nM.
As to `CCC[C@@H](NC(=O)N[C@@H](CCCCN)C(=O)O)C(=O)N[C@H]1C[C@H]2CC[C@]1(C)C2(C)C` [Example 103], the IC50 came out at 15 nM.
For `CC(C)[C@H](NC(=O)[C@@H](NC(=O)[C@@H](CC1CCCCC1)NC(=O)N[C@@H](CCCCN)C(=O)O)C(C)C)C(N)=O` [Example 137] ({Lys-CO}-[dCha]-Val-Val-NH2), the IC50 was 140 nM.
Turning to `COc1ccc(CNC(=O)[C@@H](CC2CCCCC2)NC(=O)N[C@@H](CCCCN)C(=O)O)cc1` [Example 21], inhibition was half-maximal at 904 nM (IC50).
The molecule `CC1(C)[C@@H]2CC[C@@]1(C)C(NC(=O)[C@H](NC(=O)N[C@@H](CCCCN)C(=O)O)C1CCCCC1)C2` (some centres unmarked) [Example 98] came in with an IC50 of 1040 nM.
The value for `NCCCC[C@H](NC(=O)N[C@H](CC1CCCCC1)C(=O)NC12CC3CC(CC(C3)C1)C2)C(=O)O` [Example 79] was 31 nM; that for `CC(C)[C@H](NC(=O)[C@@H](NC(=O)[C@@H](CCCCNC(=O)OCc1ccccc1)NC(=O)N[C@@H](CCCCN)C(=O)O)C(C)C)C(N)=O` [Example 140] ({Lys-CO}-[dK](Cbz)-Val-Val-NH2) was 318 nM.
The molecule `CC[C@@H](C)[C@H](NC(=O)[C@@H](CCCCNC(=O)OCc1ccccc1)NC(=O)N[C@@H](CCCCN)C(=O)O)C(N)=O` [Example 142] yielded an IC50 of 10600 nM.
As for `CC1(C)[C@@H]2CC[C@@]1(C)[C@@H](NC(=O)[C@@H](CC1CC1)NC(=O)N[C@@H](CCCCN)C(=O)O)C2` [Example 108], the figure is 7 nM.
Turning to `CC1(C)[C@@H]2CC[C@@]1(C)C(NC(=O)CC(CC1CCCCC1)NC(=O)N[C@@H](CCCN)C(=O)O)C2` (some centres unmarked) [Example 95], the midpoint of inhibition, the IC50, lay at 41000 nM.
`CCOC(=O)[C@@H](NC(=O)[C@@H](CC1CCCCC1)NC(=O)N[C@@H](CCCCN)C(=O)O)C(C)C` [Example 49] ({Lys-CO}-[dCha]-Val-OEt): the IC50 worked out at 106 nM.
Take `CC(C)CC(C)NC(=O)[C@@H](CC1CCCCC1)NC(=O)N[C@@H](CCCCN)C(=O)O` (some centres unmarked) [Example 75]: 653 nM corresponded to half-maximal inhibition (IC50).
For `NCCCC[C@H](NC(=O)N[C@H](CC1CCCCC1)C(=O)NC1CCc2ccccc2C1)C(=O)O` (some centres unmarked) [Example 73], the IC50 was found to be 47 nM.
`CC(C)CNC(=O)[C@@H](CC1CCCCC1)NC(=O)N[C@@H](CCCCN)C(=O)O` [Example 76] registered an IC50 of 845 nM.
In turn, `CC1(C)[C@@H]2CC[C@@]1(C)[C@@H](NC(=O)[C@@H](CC1CCCCC1)NC(=O)NC(Cc1ccc(N)nc1)C(=O)O)C2` (some centres unmarked) [Example 110] gave an IC50 of 6 nM.
Turning to `CC(C)C(NC(=O)C(NC(=O)[C@@H](CCCCNC(=O)OCc1ccccc1)NC(=O)N[C@@H](CCCNC(=N)N)C(=O)O)C(C)C)C(N)=O` (some centres unmarked) [Example 139] ({Arg-CO}-[dK](Cbz)-[ξV]-[ξV]-NH2), the IC50 was 376 nM.
The molecule `CC1(C)[C@@H]2CC[C@@]1(C)[C@@H](NC(=O)[C@@H](CC1CCCCC1)NC(=O)N[C@@H](CCCNC(=N)N)C(=O)O)C2` [Example 91] gave an IC50 of 4 nM.
As for `CC(C)[C@H](NC(=O)[C@@H](CCCCNC(=O)OCc1ccccc1)NC(=O)N[C@@H](CCCCN)C(=O)O)C(=O)NCC(C)(C)C` [Example 121], the IC50 came to 370 nM.
The molecule `Cc1ccccc1CCNC(=O)[C@@H](CC1CCCCC1)NC(=O)N[C@@H](CCCCN)C(=O)O` [Example 13] registered a concentration for half-maximal inhibition (IC50) of 1260 nM.
`CC(C)[C@H](NC(=O)[C@@H](CCCCNC(=O)OCc1ccccc1)NC(=O)N[C@@H](CCCCN)C(=O)O)C(=O)N[C@H](C)c1ccccc1` [Example 122] registered an IC50 of 525 nM.
As for `CC(C)[C@H](NC(=O)[C@@H](CCCCNC(=O)OCc1ccccc1)NC(=O)N[C@@H](CCCCN)C(=O)O)C(=O)NC(C)C(C)(C)C` (some centres unmarked) [Example 126], the IC50 was determined as 204 nM.
The value for `NCCCC[C@H](NC(=O)N[C@H](CCCCNC(=O)OCc1ccccc1)C(=O)NC1C[C@@H]2CC[C@H]1C2)C(=O)O` (some centres unmarked) [Example 43] was 46 nM; that for `NCCCC[C@H](NC(=O)N[C@H](CC1CCCCC1)C(=O)N[C@H]1CCc2ccccc2C1)C(=O)O` [Example 85] was 39 nM; that for `CC1CCCC(NC(=O)[C@@H](CC2CCCCC2)NC(=O)N[C@@H](CCCCN)C(=O)O)C1C` (some centres unmarked) [Example 72] was 167 nM.
Take `CC(C)[C@H](NC(=O)[C@@H](CCCCNC(=O)OCc1ccccc1)NC(=O)N[C@@H](CCCCN)C(=O)O)C(=O)N[C@@H]1C[C@H]2CC[C@@H]1C2` [Example 114]: the IC50 turned out to be 519 nM.
Molecule `CC(C)C(NC(=O)[C@@H](CC1CCCCC1)NC(=O)N[C@@H](CCCCN)C(=O)O)C(=O)N[C@H](CO)Cc1ccccc1` (some centres unmarked) [Example 135] ({Lys-CO}-[dCha]-[ξV]-[Phe(ol)]) displayed an IC50 of 522 nM.
